Results taken from ChEMBL document CHEMBL1131240, “Novel benzothiazolin-2-one and benzoxazin-3-one arylpiperazine derivatives with mixed 5HT1A/D2 affinity as potential atypical antipsychotics” (J Med Chem, 1998).

Tests used:
Mus musculus [1] = assay: Tail suspension test in mice, dose(mg/Kg ip) = 4;duration of immobility(% vs controls); type: functional
[2] = molecular target: 5-hydroxytryptamine receptor 1B (Rattus norvegicus, UniProt P28564); assay: Affinity towards 5-hydroxytryptamine 1B receptor in membranes from rat frontal cortex using [3H]5-HT; type: tissue-based
Mus musculus [3] = assay: Compound was evaluated in vivo antagonism of mescaline-induced scratching(% vs controls), dose(mg/Kg ip)=4; type: functional
[4] = molecular target: 5-hydroxytryptamine receptor 2A (Bos taurus, UniProt Q75Z89); assay: Affinity towards 5-hydroxytryptamine 2A receptor in membranes from bovine frontal cortex using [3H]ketanserin; type: tissue-based
[5] = molecular target: T1, Alpha-1A adrenergic receptor (Bos taurus, UniProt P18130); assay: Affinity towards Alpha-1A adrenergic receptor in membranes from bovine frontal cortex using [3H]prazosin; type: tissue-based
T1 sequence (P18130 whole entry): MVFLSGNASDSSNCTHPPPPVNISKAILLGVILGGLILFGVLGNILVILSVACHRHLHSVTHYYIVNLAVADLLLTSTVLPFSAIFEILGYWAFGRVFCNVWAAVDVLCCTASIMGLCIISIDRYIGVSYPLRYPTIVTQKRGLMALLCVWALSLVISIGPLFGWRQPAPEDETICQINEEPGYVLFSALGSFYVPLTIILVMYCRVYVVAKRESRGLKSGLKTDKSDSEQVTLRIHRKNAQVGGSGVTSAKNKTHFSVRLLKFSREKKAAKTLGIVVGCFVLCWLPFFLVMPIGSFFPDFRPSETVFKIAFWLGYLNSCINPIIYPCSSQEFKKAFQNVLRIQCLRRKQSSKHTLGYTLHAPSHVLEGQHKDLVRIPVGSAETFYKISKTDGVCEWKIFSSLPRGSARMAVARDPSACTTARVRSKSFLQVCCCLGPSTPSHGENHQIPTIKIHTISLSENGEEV

Mus musculus [6] = assay: Compound was evaluated in vivo antagonism of mescaline-induced scratching(% vs controls), dose(mg/Kg ip)=1; type: functional
Rattus norvegicus [7] = assay: effects on Sidman Avoidance performance in rats, number of escape failure (absolute change from control), p<0.01, dose(mg/Kg po) =32; type: functional
Rattus norvegicus [8] = assay: Effects on Sidman Avoidance performance in rats, number of shocks (absolute change from control), dose (mg/Kg po) =8; type: functional
Rattus norvegicus [9] = assay: effects on Sidman Avoidance performance in rats, number of shocks (absolute change from control), p<0.001, dose(mg/Kg po) =32; type: functional
Rattus norvegicus [10] = assay: effects on Sidman Avoidance performance in rats, number of Avoidance performance(% change from control) p<0.001 dose(mg/Kg po) =32; type: functional
Rattus norvegicus [11] = assay: effects on Sidman Avoidance performance in rats, number of escape failure (absolute change from control),n=10 animals per group, dose(mg/Kg po) =16; type: functional
Mus musculus [12] = assay: Compound was evaluated in vivo antagonism of mescaline-induced scratching(% vs controls), dose(mg/Kg ip)=0.25; type: functional
Rattus norvegicus [13] = assay: Antagonism of SKF 10047 -induced hypermotility (% vs controls) dose(mg/Kg po) = 0.5; type: functional
Rattus norvegicus [14] = assay: Antagonism of PCP-induced stereotypies (%vs controls), dose(mg/Kg po) = 8; type: functional
Rattus norvegicus [15] = assay: Antagonism of SKF 10047 -induced hypermotility (% vs controls) dose(mg/Kg po) = 8; type: functional
Rattus norvegicus [16] = assay: Antagonism of PCP-induced stereotypies (%vs controls), dose(mg/Kg po) = 0.5; type: functional
Rattus norvegicus [17] = assay: effects on Sidman Avoidance performance in rats, number of shocks (absolute change from control),n=10 animals per group, dose(mg/Kg po) =16; type: functional
Rattus norvegicus [18] = assay: effects on Sidman Avoidance performance in rats, number of Avoidance performance(% change from control), p<0.01,dose(mg/Kg po) =16; type: functional
Rattus norvegicus [19] = assay: effects on Sidman Avoidance performance in rats, number of escape failure (absolute change from control), dose(mg/Kg po) =8; type: functional
Rattus norvegicus [20] = assay: Effects on Sidman Avoidance performance in rats, number of Avoidance performance (% change from control), dose (mg/Kg po) = 8; type: functional
Rattus norvegicus [21] = assay: Antagonism of PCP-induced stereotypies (%vs controls), dose(mg/Kg po) = 2; type: functional
Mus musculus [22] = assay: Compound was evaluated in vivo antagonism of mescaline-induced scratching(% vs controls), dose(mg/Kg ip)=2; type: functional
Mus musculus [23] = assay: Compound was evaluated in vivo antagonism of mescaline-induced scratching(% vs controls), dose(mg/Kg ip)=1, p<0.05
Mus musculus [24] = assay: Compound was evaluated in vivo antagonism of mescaline-induced scratching(% vs controls), dose(mg/Kg ip)=4, p<0.001; type: functional
Mus musculus [25] = assay: Compound was evaluated in vivo antagonism of mescaline-induced scratching(% vs controls), dose(mg/Kg ip)=2, ns
Mus musculus [26] = assay: Compound was evaluated in vivo antagonism of mescaline-induced scratching(% vs controls), dose(mg/Kg ip)=8, p<0.001; type: functional
Rattus norvegicus [27] = assay: Antagonism of SKF 10047 -induced hypermotility (% vs controls) dose(mg/Kg po) = 1
Rattus norvegicus [28] = assay: effects on Sidman Avoidance performance in rats, number of escape failure (absolute change from control), p<0.01, dose(mg/Kg po) =1; type: functional
Rattus norvegicus [29] = assay: effects on Sidman Avoidance performance in rats, number of shocks (absolute change from control), p<0.001, dose(mg/Kg po) =1; type: functional

5-hydroxytryptamine receptor 2A, sequence (Q75Z89 whole entry): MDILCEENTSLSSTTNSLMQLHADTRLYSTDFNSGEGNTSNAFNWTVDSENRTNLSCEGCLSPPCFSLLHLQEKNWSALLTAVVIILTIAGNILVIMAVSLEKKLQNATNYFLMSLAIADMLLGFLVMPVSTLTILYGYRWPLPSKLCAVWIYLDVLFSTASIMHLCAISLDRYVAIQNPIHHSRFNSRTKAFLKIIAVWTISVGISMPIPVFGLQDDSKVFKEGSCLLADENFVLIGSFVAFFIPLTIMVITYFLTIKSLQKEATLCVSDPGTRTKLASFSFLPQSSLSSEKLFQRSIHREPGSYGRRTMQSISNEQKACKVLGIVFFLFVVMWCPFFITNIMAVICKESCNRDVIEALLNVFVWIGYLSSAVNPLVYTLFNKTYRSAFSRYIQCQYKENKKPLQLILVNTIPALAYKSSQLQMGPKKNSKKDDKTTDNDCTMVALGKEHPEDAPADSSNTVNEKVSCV
5-hydroxytryptamine receptor 1B, sequence (P28564 whole entry): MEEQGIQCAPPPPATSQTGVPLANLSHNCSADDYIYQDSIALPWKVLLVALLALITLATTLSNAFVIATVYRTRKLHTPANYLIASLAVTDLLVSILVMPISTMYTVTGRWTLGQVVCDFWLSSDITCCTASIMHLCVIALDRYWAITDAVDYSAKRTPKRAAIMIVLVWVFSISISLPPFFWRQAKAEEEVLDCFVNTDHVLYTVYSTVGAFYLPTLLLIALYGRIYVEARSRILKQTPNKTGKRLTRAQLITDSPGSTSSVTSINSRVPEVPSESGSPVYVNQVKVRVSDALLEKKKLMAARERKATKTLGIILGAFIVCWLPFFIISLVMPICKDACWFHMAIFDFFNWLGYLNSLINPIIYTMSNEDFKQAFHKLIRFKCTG

Row | SMILES | IC50 [2] | IC50 [4] | IC50 [5] | Duration of immobility (Mus musculus [1]) | also measured
1 | COc1ccccc1N1CCN(CCc2ccc3c(c2)sc(=O)n3C)CC1 | 300 nM | 500 nM | 10 nM | 89 | Activity (Mus musculus [6]): 100; No. of escape failure (Rattus norvegicus [7]): 63.6; No. of shocks (Rattus norvegicus [8]): 7.3; No. of shocks (Rattus norvegicus [9]): 87.8; No. of avoidance (Rattus norvegicus [10]): 78; No. of escape failure (Rattus norvegicus [11]): 18.5; Activity (Mus musculus [12]): 92; Hypermotility (Rattus norvegicus [13]): 39; Hypermotility (Rattus norvegicus [14]): 21; Hypermotility (Rattus norvegicus [15]): 71; Hypermotility (Rattus norvegicus [16]): 12; No. of shocks (Rattus norvegicus [17]): 23.8; No. of avoidance (Rattus norvegicus [18]): 38; No. of escape failure (Rattus norvegicus [19]): 5.8; No. of avoidance (Rattus norvegicus [20]): 12; Hypermotility (Rattus norvegicus [21]): 2
2 | Cn1c(=O)sc2cc(CCN3CCN(c4cccc(C(F)(F)F)c4)CC3)ccc21 | 70 nM | 600 nM | 400 nM | – | –
3 | Oc1nc2ccc(CCN3CCN(c4ccccc4)CC3)cc2s1 | 300 nM | 40 nM | – | – | –
4 | O=c1[nH]c2ccc(CCN3CCN(c4cccc(C(F)(F)F)c4)CC3)cc2s1 | 600 nM | 200 nM | 90 nM | – | –
5 | CN1C(=O)COc2cc(CCN3CCN(c4cccc(C(F)(F)F)c4)CC3)ccc21 | 460 nM | 620 nM | 85 nM | – | –
6 | Cn1c(=O)sc2cc(CCN3CCN(c4ccc(F)cc4)CC3)ccc21 | 3000 nM | 200 nM | 30 nM | – | –
7 | Cn1c(=O)sc2cc(CCN3CCN(c4ccccc4O)CC3)ccc21 | 31 nM | 1100 nM | – | – | –
8 | COc1ccccc1N1CCN(CCc2ccc3nc(O)sc3c2)CC1 | 20 nM | 300 nM | 0.6 nM | – | –
9 | Oc1nc2ccc(CCN3CCN(c4ccccc4O)CC3)cc2s1 | 260 nM | 530 nM | – | 92 | Activity (Mus musculus [24]): 97; Activity (Mus musculus [25]): 71
10 | CN1C(=O)COc2cc(CCCCN3CCN(c4cccc(C(F)(F)F)c4)CC3)ccc21 | 280 nM | 620 nM | 30 nM | – | Activity (Mus musculus [26]): 87; Activity (Mus musculus [25]): 60
11 | O=c1[nH]c2ccc(CCCCN3CCN(c4cccc(C(F)(F)F)c4)CC3)cc2s1 | 400 nM | 570 nM | 45 nM | – | –
12 | CN1CCN(C2=Nc3cc(Cl)ccc3Nc3ccccc32)CC1 [CLOZAPINE] | – | – | – | 90 | No. of escape failure (Rattus norvegicus [7]): 53.8; No. of shocks (Rattus norvegicus [9]): 71.1; Activity (Mus musculus [24]): 99
13 | O=C(CCCN1CCC(O)(c2ccc(Cl)cc2)CC1)c1ccc(F)cc1 [HALOPERIDOL] | – | – | – | 65 | Hypermotility (Rattus norvegicus [27]): 94; No. of escape failure (Rattus norvegicus [28]): 84.6; No. of shocks (Rattus norvegicus [29]): 99.7

The next lines start with results.

Row | IC50 [2] | IC50 [4] | IC50 [5] | SMILES | Duration of immobility (Mus musculus [1]) | also measured
14 | 61 nM | 290 nM | 1 nM | COc1ccccc1N1CCN(CCCc2ccc3nc(O)sc3c2)CC1 | 99 | Activity (Mus musculus [3]): 96
15 | 360 nM | 910 nM | 6 nM | COc1ccccc1N1CCN(CCCc2ccc3c(c2)sc(=O)n3C)CC1 | – | Activity (Mus musculus [22]): 73
16 | 180 nM | 600 nM | 0.5 nM | COc1ccccc1N1CCN(CCc2ccc3c(c2)OCC(=O)N3C)CC1 | – | –
17 | – | 840 nM | 20 nM | COc1ccccc1N1CCN(CCCCc2ccc3c(c2)OCC(=O)N3C)CC1 | 124 | Activity (Mus musculus [23]): 81
18 | 1000 nM | 400 nM | 200 nM | Cn1c(=O)sc2cc(CCCCN3CCN(c4cccc(C(F)(F)F)c4)CC3)ccc21 | – | –
19 | 300 nM | 1000 nM | 30 nM | COc1ccccc1N1CCN(CCCCc2ccc3c(c2)sc(=O)n3C)CC1 | 36 | –
20 | 200 nM | 70 nM | > 100 nM | Cn1c(=O)sc2cc(CCN3CCN(c4ccccc4)CC3)ccc21 | – | –
21 | 200 nM | 150 nM | 0.82 nM | COc1ccccc1N1CCN(CCCCc2ccc3[nH]c(=O)sc3c2)CC1 | – | –
